Measurements taken from ChEMBL document CHEMBL4665893, “Scalable Synthesis, In Vitro cccDNA Reduction, and In Vivo Antihepatitis B Virus Activity of a Phosphonomethoxydeoxythreosyl Adenine Prodrug” (J Med Chem, 2020).

Experiments:
[1] = Toxicity in C57BL/6 mouse assessed as induction of functional deficit at 60 mg/kg, po for 14 days; assay type: organism-based; conditions: in vivo, 336 h, time 14 day
Hepatitis B virus [2] = assay: Antiviral activity against adenovirus AdH294-WT harboring wild-type HBV genotype D accession #V01460 infected in human HepG2 cells assessed as reduction in viral replicative intermediate DNA level at 370 nM incubated for 5 days by Southern blot analysis (reference value: 100%); assay type: functional; parameters: scale not given: the % may be the effect or the level left; conditions: time 5 day
Hepatitis B virus [3] = assay: Antiviral activity against ETV-resistant and adenovirus AdH294-7LR harboring wild-type HBV infected in human HepG2 cells assessed as viral replicative intermediate DNA level at 3300 nM incubated for 5 days by Southern blot analysis (reference value: 100%); assay type: functional; conditions: time 5 day
[4] = Toxicity in C57BL/6 male mouse assessed as reduction in hemoglobin level at 60 mg/kg, po for 14 days by hematology analysis; assay type: organism-based; conditions: in vivo, 336 h, time 14 day
[5] = Genotoxicity in Salmonella typhimurium TA1537 assessed as increase in number of spontaneous revertants colonies by Ames test; assay type: toxicity; conditions: salmonella enterica subsp. enterica serovar typhimurium, 1 µM
Hepatitis B virus [6] = assay: Antiviral activity against adenovirus AdH294-WT harboring wild-type HBV genotype D accession #V01460 infected in human HepG2 cells assessed as reduction in viral replicative intermediate DNA level at 40 nM incubated for 5 days by Southern blot analysis (reference value: 100%); assay type: functional; parameters: scale not given: the % may be the effect or the level left; conditions: time 5 day
Hepatitis B virus [7] = assay: Antiviral activity against adenovirus AdH294-WT harboring wild-type HBV genotype D accession #V01460 infected in human HepG2 cells assessed as reduction in viral replicative intermediate DNA level at 4 nM incubated for 5 days by Southern blot analysis (reference value: 100%); assay type: functional; parameters: scale not given: the % may be the effect or the level left; conditions: time 5 day
Hepatitis B virus [8] = assay: Antiviral activity against ETV-resistant and adenovirus AdH294-7LR harboring wild-type HBV infected in human HepG2 cells assessed as viral replicative intermediate DNA level at 120 nM incubated for 5 days by Southern blot analysis (reference value: 100%); assay type: functional; conditions: time 5 day
[9] = Toxicity in C57BL/6 male mouse assessed as reduction in hematocrit level at 60 mg/kg, po for 14 days by hematology analysis; assay type: organism-based; conditions: in vivo, 336 h, time 14 day
Hepatitis B virus [10] = assay: Antiviral activity against adenovirus AdH294-WT harboring wild-type HBV genotype D accession #V01460 infected in human HepG2 cells assessed as reduction in viral replicative intermediate DNA level at 120 nM incubated for 5 days by Southern blot analysis (reference value: 100%); assay type: functional; parameters: scale not given: the % may be the effect or the level left; conditions: time 5 day
Hepatitis B virus [11] = assay: Antiviral activity against ETV-resistant and adenovirus AdH294-7LR harboring wild-type HBV infected in human HepG2 cells assessed as viral replicative intermediate DNA level at 370 nM incubated for 5 days by Southern blot analysis (reference value: 100%); assay type: functional; conditions: time 5 day
Hepatitis B virus [12] = assay: Antiviral activity against ETV-resistant and adenovirus AdH294-7LR harboring wild-type HBV infected in human HepG2 cells assessed as viral replicative intermediate DNA level at 13 nM incubated for 5 days by Southern blot analysis (reference value: 100%); assay type: functional; conditions: time 5 day
[13] = Toxicity in C57BL/6 male mouse assessed as reduction in erythrocytes level at 60 mg/kg, po for 14 days by hematology analysis; assay type: organism-based; conditions: in vivo, 336 h, time 14 day
[14] = Toxicity in C57BL/6 female mouse assessed as increase in neutrophils level at 60 mg/kg, po for 14 days by hematology analysis; assay type: organism-based; conditions: in vivo, 336 h, time 14 day
Hepatitis B virus [15] = assay: Antiviral activity against adenovirus AdH294-WT harboring wild-type HBV genotype D accession #V01460 infected in human HepG2 cells assessed as reduction in viral replicative intermediate DNAs incubated for 5 days by Southern blot analysis; assay type: functional, organism-based; conditions: genotype D accession #V01460, HepG2, 120 h
[16] = Toxicity in C57BL/6 mouse assessed as induction of mortality at 60 mg/kg, po for 14 days; assay type: organism-based; conditions: in vivo, 336 h, time 14 day
[17] = Toxicity in C57BL/6 mouse assessed as induction of body weight loss at 60 mg/kg, po for 14 days relative to control; assay type: organism-based; conditions: in vivo, 336 h, time 14 day
[18] = Genotoxicity in Salmonella typhimurium TA100 assessed as increase in number of spontaneous revertants colonies by Ames test; assay type: toxicity; conditions: salmonella enterica subsp. enterica serovar typhimurium, 1 µM
[19] = Genotoxicity in Salmonella typhimurium at 1 uM by Ames test; assay type: toxicity; conditions: salmonella enterica subsp. enterica serovar typhimurium
[20] = Toxicity in C57BL/6 female mouse assessed as effect on clinical chemistry level at 60 mg/kg, po for 14 days; assay type: organism-based; conditions: in vivo, 336 h, time 14 day
Hepatitis B virus [21] = assay: Antiviral activity against adenovirus AdH294-WT harboring wild-type HBV genotype D accession #V01460 infected in human HepG2 cells assessed as reduction in viral replicative intermediate DNA level at 13 nM incubated for 5 days by Southern blot analysis (reference value: 100%); assay type: functional; parameters: scale not given: the % may be the effect or the level left; conditions: time 5 day
[22] = Toxicity in C57BL/6 male mouse assessed as effect on organ weight level at 60 mg/kg, po for 14 days; assay type: organism-based; conditions: in vivo, 336 h, time 14 day
[23] = Genotoxicity in Salmonella typhimurium TA1535 assessed as increase in number of spontaneous revertants colonies by Ames test; assay type: toxicity; conditions: salmonella enterica subsp. enterica serovar typhimurium, 1 µM
[24] = Toxicity in C57BL/6 male mouse assessed as reduction in food consumption loss at 60 mg/kg, po for 11 days relative to control; assay type: organism-based; conditions: in vivo, 264 h, time 11 day
Hepatitis B virus [25] = assay: Antiviral activity against ETV-resistant and adenovirus AdH294-7LR harboring wild-type HBV infected in human HepG2 cells assessed as viral replicative intermediate DNA level at 1100 nM incubated for 5 days by Southern blot analysis (reference value: 100%); assay type: functional; conditions: time 5 day
[26] = Toxicity in human HepDE19 cells assessed as reduction in beta-actin level incubated for 9 days by qPCR analysis; assay type: cell-based; conditions: time 9 day

With `CC(C)CCOC(=O)C[C@H](NP(=O)(CO[C@H]1CO[C@@H](n2cnc3c(N)ncnc32)C1)Oc1ccccc1)C(=O)OCCC(C)C` (mixture of isomers) as the compound, how does the Activity [1] read?
The Activity was “Non-Toxic”.

And the Activity (Hepatitis B virus [2])?
The Activity was 1.8%.

What about the Activity (Hepatitis B virus [3]) of the same compound?
Its Activity is 11.7%.

What about the Activity [4] of the same compound?
Its Activity is “Toxic”.

What about the Activity [5] of the same compound?
The Activity was “Non-Toxic”.

What about the Activity (Hepatitis B virus [6]) of the same compound?
The Activity was 12.9%.

And the Activity (Hepatitis B virus [7])?
The Activity was 39.1%.

And the Activity (Hepatitis B virus [8])?
Its Activity is 38.5%.

And the Activity [9]?
The Activity was “Toxic”.

What about the Activity (Hepatitis B virus [10]) of the same compound?
The Activity was 7.5%.

What about the Activity (Hepatitis B virus [11]) of the same compound?
Its Activity is 20.2%.

And the Activity (Hepatitis B virus [12])?
Its Activity is 101.5%.

What about the Activity [13] of the same compound?
The Activity was “Toxic”.

What about the Activity [14] of the same compound?
The Activity was “Non-Toxic”.

What about the EC50 (Hepatitis B virus [15]) of the same compound?
Its EC50 is less than 0.004 µM.

What about the Activity [16] of the same compound?
The Activity was “Non-Toxic”.

And the Activity [17]?
The Activity was 4%.

What about the Activity [18] of the same compound?
Its Activity is “Non-Toxic”.

What about the Activity [19] of the same compound?
Its Activity is “Non-Toxic”.

What about the Activity [20] of the same compound?
Its Activity is “Non-Toxic”.

What about the Activity (Hepatitis B virus [21]) of the same compound?
The Activity was 22.4%.

And the Activity [22]?
The Activity was “Non-Toxic”.

What about the Activity [23] of the same compound?
The Activity was “Non-Toxic”.

What about the Activity [24] of the same compound?
The Activity was “Toxic”.

What about the Activity (Hepatitis B virus [25]) of the same compound?
Its Activity is 18.1%.

What about the CC50 at 216 h [26] of the same compound?
The CC50 at 216 h was 0.23 µM.
